The record followed here is patent EP4790066A1, “GLP-1R/GIPR/GCGR TRIPLE AGONIST ANALOGUE AND USE THEREOF” (Shenzhen Bay Laboratory, priority 2023, dated 2025).

Common to all, as to assay type: cell-based
The target of assay [1] is T1, GIPR (Homo sapiens, UniProt P48546).
T1 construct: expressed in transfected cells
T1 sequence (P48546 22-466): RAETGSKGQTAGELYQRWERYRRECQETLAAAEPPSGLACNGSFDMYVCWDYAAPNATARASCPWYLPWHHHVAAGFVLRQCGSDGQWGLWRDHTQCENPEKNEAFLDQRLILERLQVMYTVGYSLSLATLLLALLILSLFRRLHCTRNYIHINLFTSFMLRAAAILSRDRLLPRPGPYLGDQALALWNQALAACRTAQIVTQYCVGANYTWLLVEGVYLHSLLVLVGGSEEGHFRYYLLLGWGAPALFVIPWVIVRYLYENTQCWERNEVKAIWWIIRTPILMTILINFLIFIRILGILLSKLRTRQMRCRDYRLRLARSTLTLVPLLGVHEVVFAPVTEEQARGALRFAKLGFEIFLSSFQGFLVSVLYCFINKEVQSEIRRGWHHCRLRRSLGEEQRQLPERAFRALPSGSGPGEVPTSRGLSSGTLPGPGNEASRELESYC
Briefly: CreLuc method (CRE-luciferase reporter), HEK293/pGM-CREB-L-Luc/GIPR pool. To be noted: 6 h incubation, read-out: EC50 (pM) for each receptor GIPR. In outline:
(§1)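 Stable HEK293 pools co-expressing each receptor with a CRE-luciferase reporter were plated at 20,000 cells/well in freestyle medium and treated with compound dilution series for 6 h at 37 °C. Luminescence was read with ONE-GLO to derive EC50.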
(A reporter such as luciferase makes a cellular process visible.)

Assay [2] concerns the target T2, GLP-1R (Homo sapiens, UniProt P43220).
T2 construct: expressed in transfected cells
In words: CreLuc method (CRE-luciferase reporter), HEK293/pGM-CREB-L-Luc/GLP-1R pool. To be noted: 6 h incubation, read-out: EC50 (pM) for each receptor GLP-1R. In a few lines: as §1

For assay [3], the target named is T3, GCGR (Homo sapiens, UniProt P47871).
T3 construct: expressed in transfected cells
Briefly: CreLuc method (CRE-luciferase reporter), 293HEK/pGM-CREB-L-Luc/GCGR pool. The note with it: 6 h incubation, read-out: EC50 (pM) for each receptor GCGR. In outline:
as §1

Assay [4] concerns the target T3, GCGR. Briefly: cAMP method (HTRF cAMP detection kit), HEK293/pGM-CREB-L-Luc/GCG pool. The note with it: read-out: EC50 (pM) for each receptor GCGR. Background: TR-FRET usually uses a lanthanide donor and a delayed reading to cut background.
For assay [5], the target named is T1, GIPR. Briefly: cAMP method (HTRF cAMP detection kit), HEK293/pGM-CREB-L-Luc/GIP pool. The note with it: read-out: EC50 (pM) for each receptor GIPR.
Assay [6] has as its target T2, GLP-1R. In words: cAMP method (HTRF cAMP detection kit), HEK293/pGM-CREB-L-Luc/GLP-1 pool. To be noted: read-out: EC50 (pM) for each receptor GLP-1R. The procedure:
2. Insulinotropic analogues can bind to target receptors on the cell membrane, activate the receptors, and induce release. The activity of the test substance can be determined using the HTRF method with a cAMP detection kit. Therefore, the cAMP method can be used to detect the target peptide derivatives (or polypeptide derivatives, i.e., TG1-TG86) prepared in Example 1 and Example 2. […] The test cell line was selected, treated with cAMP-specific trypsin for digestion. 3 mL of serum-free DMEM culture medium was added, and the cells were pipetted, resuspended, and counted. 5 µL of IBMX (prepared with serum-free DMEM medium, 0.5 mM) and test cells (5 µL/7500 cells/well) were added in a 384-well plate sequentially. The plate was incubated at 37°C under 5% CO2 for 30 min, followed by the addition of cAMP-d2 (5 µL, 1x) and Anti-cAMP-Cryptate (5 µL, 1x). The mixture was kept at room temperature for 1 h, after which the HTRF value was measured using a chemiluminescent microplate reader, and the determination result was recorded. […] Table 4: EC50 values for target peptide derivatives

Each structure is given as a SMILES string.

T3 sequence (P47871 26-477, species assumed): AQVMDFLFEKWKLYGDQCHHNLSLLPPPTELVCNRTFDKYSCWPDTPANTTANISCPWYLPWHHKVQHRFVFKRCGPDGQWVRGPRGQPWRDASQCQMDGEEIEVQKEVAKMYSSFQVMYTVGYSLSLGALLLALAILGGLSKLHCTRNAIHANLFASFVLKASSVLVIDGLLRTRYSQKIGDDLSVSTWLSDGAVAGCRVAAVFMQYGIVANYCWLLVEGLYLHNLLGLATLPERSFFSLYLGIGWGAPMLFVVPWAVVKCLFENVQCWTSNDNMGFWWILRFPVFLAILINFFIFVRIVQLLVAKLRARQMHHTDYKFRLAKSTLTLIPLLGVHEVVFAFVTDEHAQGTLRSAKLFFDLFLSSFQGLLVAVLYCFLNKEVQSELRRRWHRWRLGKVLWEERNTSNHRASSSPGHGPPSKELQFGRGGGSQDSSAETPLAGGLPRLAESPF
T2 sequence (P43220 24-463, species assumed): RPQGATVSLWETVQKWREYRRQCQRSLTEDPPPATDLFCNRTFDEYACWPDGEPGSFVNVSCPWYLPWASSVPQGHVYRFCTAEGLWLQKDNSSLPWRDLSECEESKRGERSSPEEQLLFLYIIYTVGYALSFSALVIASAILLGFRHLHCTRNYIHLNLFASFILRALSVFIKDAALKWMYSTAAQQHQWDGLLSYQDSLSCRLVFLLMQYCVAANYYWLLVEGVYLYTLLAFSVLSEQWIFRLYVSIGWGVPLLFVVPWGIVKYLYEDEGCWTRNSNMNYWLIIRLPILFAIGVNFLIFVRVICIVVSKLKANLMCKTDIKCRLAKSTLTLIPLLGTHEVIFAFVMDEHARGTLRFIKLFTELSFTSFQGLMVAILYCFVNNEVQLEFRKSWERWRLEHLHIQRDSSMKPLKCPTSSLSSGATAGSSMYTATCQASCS

Broadly, the EC50 is the midpoint of the concentration-response curve. On to `CC(C)C[C@H](NC(=O)[C@H](CC(C)C)NC(=O)[C@H](Cc1c[nH]c2ccccc12)NC(=O)[C@@H]1CSCC(=O)NCCN(C(=O)CCC(=O)NCCOCCOCC(=O)NCCOCCOCC(=O)NCCCC[C@H](NC(=O)CCCCCCCCCCCCCCCCCCC(=O)O)C(=O)O)CCNC(=O)CSC[C@H](NC(=O)[C@H](CCCCN)NC(=O)[C@H](CC(=O)O)NC(=O)[C@H](CC(C)C)NC(=O)[C@H](Cc2ccc(O)cc2)NC(=O)[C@H](CCCCN)NC(=O)[C@H](CO)NC(=O)[C@H](Cc2ccc(O)cc2)NC(=O)[C@H](CC(=O)O)NC(=O)[C@H](CO)NC(=O)[C@@H](NC(=O)[C@H](Cc2ccccc2)NC(=O)[C@@H](NC(=O)CNC(=O)[C@H](Cc2c[nH]cn2)NC(=O)C(C)(C)NC(=O)[C@@H](N)Cc2c[nH]cn2)[C@@H](C)O)[C@@H](C)O)C(=O)N[C@@H](Cc2ccc(O)cc2)C(=O)N[C@@H](C)C(=O)N[C@@H](CCC(N)=O)C(=O)N[C@@H](CC(=O)O)C(=O)N[C@@H](Cc2ccccc2)C(=O)N[C@@H](C(C)C)C(=O)N1)C(=O)N[C@@H](CCC(=O)O)C(=O)NCC(=O)NCC(=O)N1CCC[C@H]1C(=O)N[C@@H](CO)C(=O)N[C@@H](CO)C(=O)NCC(=O)N[C@@H](C)C(=O)N1CCC[C@H]1C(=O)N1CCC[C@H]1C(=O)N1CCC[C@H]1C(=O)N[C@@H](CO)C(N)=O` [TG10], for which the EC50 at GIPR [1] was determined as 368 pM; at GLP-1R [2] it was 359 pM; on GCGR [3], 149 pM; at GCGR [4], 8.5 pM; on GIPR [5], 9.7 pM; at GLP-1R [6], 2.5 pM.

Take `CC[C@H](C)[C@@H]1NC(=O)[C@H](Cc2ccccc2)NC(=O)[C@@H](NC(=O)C(C)(C)NC(=O)[C@H](CCC(N)=O)NC(=O)[C@H](C)NC(=O)[C@H](CCC(N)=O)NC(=O)[C@H](CCCCN)NC(=O)[C@H](CC(=O)O)NC(=O)[C@H](CC(C)C)NC(=O)[C@](C)(CC(C)C)NC(=O)[C@@H](NC(=O)[C@H](CO)NC(=O)[C@H](Cc2ccc(O)cc2)NC(=O)[C@H](CC(=O)O)NC(=O)[C@H](CO)NC(=O)[C@@H](NC(=O)[C@H](Cc2ccccc2)NC(=O)[C@@H](NC(=O)CNC(=O)[C@H](CCC(N)=O)NC(=O)C(C)(C)NC(=O)[C@@H](N)Cc2ccc(O)cc2)[C@@H](C)O)[C@@H](C)O)[C@@H](C)CC)CSCC(=O)NCCN(C(=O)CCC(=O)NCCOCCOCC(=O)NCCOCCOCC(=O)NCCCC[C@H](NC(=O)CCCCCCCCCCCCCCCCCCC(=O)O)C(=O)O)CCNC(=O)CSC[C@@H](C(=O)NCC(=O)NCC(=O)N2CCC[C@H]2C(=O)N[C@@H](CO)C(=O)N[C@@H](CO)C(=O)NCC(=O)N[C@@H](C)C(=O)N2CCC[C@H]2C(=O)N2CCC[C@H]2C(=O)N2CCC[C@H]2C(=O)N[C@@H](CO)C(N)=O)NC(=O)[C@H](CC(C)C)NC(=O)[C@H](CC(C)C)NC(=O)[C@H](Cc2ccc(O)cc2)NC(=O)[C@H](CCC(=O)O)NC1=O` [TG30]: the EC50 on GIPR [1] turned out to be 45.3 pM; on GLP-1R [2], 47.8 pM; on GCGR [3] it was 347 pM; at GCGR [4] it was 28.7 pM; on GIPR [5], 3.2 pM; on GLP-1R [6], 2.5 pM.
